Read-outs that look alike come from different tables or passages of the source.
What was measured:
[1] = target: T1, 5-HT1A cloned receptor membrane fragments (Homo sapiens, UniProt P08908); assay: [35S]-GTPγS binding assay; type: biochemical; conditions: read-out: GTPγS (%EMax)
T1 construct: expressed in transfected cells
T1 sequence (P08908 1-422): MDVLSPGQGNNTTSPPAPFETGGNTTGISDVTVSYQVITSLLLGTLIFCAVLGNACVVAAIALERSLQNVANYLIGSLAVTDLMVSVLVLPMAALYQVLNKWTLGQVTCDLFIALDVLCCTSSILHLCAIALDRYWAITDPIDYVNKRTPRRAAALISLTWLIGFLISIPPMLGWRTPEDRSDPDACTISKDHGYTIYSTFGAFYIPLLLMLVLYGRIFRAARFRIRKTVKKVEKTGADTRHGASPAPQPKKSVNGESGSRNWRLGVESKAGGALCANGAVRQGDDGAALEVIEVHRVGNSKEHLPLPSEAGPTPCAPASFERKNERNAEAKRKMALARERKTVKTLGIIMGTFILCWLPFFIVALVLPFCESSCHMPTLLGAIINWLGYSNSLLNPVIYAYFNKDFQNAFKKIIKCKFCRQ
Procedure: The [^35S]-GTPγS binding assay was similar to that used by Lazareno and Birdsall, Br. J. Pharmacol. 109:1120 (1993). Briefly, 5-HT1A cloned receptor membrane fragments (as used for 5-HT1A receptor binding assays) were stored at -70°C until needed. When needed, membranes were rapidly thawed, centrifuged at 40,000 x g for 10 minutes and resuspended at 4 °C for 10 minutes in assay buffer (25 mM HEPES, 3 mM MgCl2, 100 mM NaCl, 1 mM EDTA, 10 uM GDP, […], pH 8.0). These membranes were then incubated for 30 minutes at 30°C with [^35S]GTPgS (1 nM) in the presence of vehicle, test compound (one to eight concentrations), or excess 8-OH-DPAT to define maximum agonist response. All reactions are terminated by the addition of ice cold Tris buffer followed by rapid filtration using a Tom Tech® filtration device to separate bound from free [^35S]GTPgS. Agonists produce an increase in the amount of [^35S]GTPgS bound whereas antagonists produce no increase in binding. Bound radioactivity was counted and analyzed as above.

[2] = target: T2, human 5-HT1A receptor subtype (5-HT1A.CHO cells) (Homo sapiens, UniProt P08908); assay: cAMP formation in forskolin-treated cells (cAMP SPA assay); type: cell-based; conditions: value in brackets; forskolin 1 uM
T2 construct: expressed in transfected cells
T2 sequence (P08908 1-422): T1 sequence (P08908 1-422)
Procedure: (§1) The PCR cloning of the human 5-HT1A receptor subtype from a human genomic library has been described previously Chanda et al., Mol. Pharmacol., 43:516 (1993). A stable Chinese hamster ovary cell line expressing the human 5-HT1A receptor subtype (5-HT1A.CHO cells) was employed throughout this study. Cells were maintained in DMEM supplemented with 10% foetal calf serum, non-essential amino acids and penicillin/ streptomycin.
The following assays were performed by incubating the cells with DMEM containing 25 mM HEPES, 5 mM theophylline and 10 µM pargyline for a period of 20 minutes at 37°C. Functional activity was assessed by treating the cells with forskolin (1 uM final concentration) followed immediately by test compound (6 concentrations) for an additional 10 minutes at 37°C. In separate experiments, 6 concentrations of antagonist were preincubated for 20 minutes prior to the addition of 10 nM 8-OH-DPAT and forskolin. The reaction was terminated by removal of the media and addition of 0.5 ml ice cold assay buffer. Plates were stored at -20°C prior to assessment of cAMP formation by a cAMP SPA assay (Amersham).

[3] = target: T3, human 5-HT1A receptor subtype (Homo sapiens, UniProt P08908); assay: 5-HT1A receptor binding assay with [3H]8-OH-DPAT on CHO cell membranes; conditions: [3H]8-OH-DPAT 1.5 nM
T3 construct: expressed in transfected cells
T3 sequence (P08908 1-422): T1 sequence (P08908 1-422)
Procedure: as §1
Cells were grown to 95-100% confluency as a monolayer before membranes were harvested for binding studies. Cells were gently scraped from the culture plates, transferred to centrifuge tubes, and washed twice by centrifugation (2000 rpm for 10 min., 4°C) in buffer (50 mM Tris; pH 7.5). The resulting pellets were aliquoted and placed at -80°C. On the day of assay, the cells were thawed on ice, and resuspended in buffer. Studies were conducted using [^3H]8-OH-DPAT as the radioligand. The binding assay was performed in 96 well microtiter plates in a final total volume of 250 µL of buffer. Competition experiments were performed by using 7 concentrations of unlabelled drug and a final ligand concentration of 1.5 nM. Nonspecific binding was determined in the presence of 10 µM 5HT. Saturation analysis was conducted by using [^3H]8-OH-DPAT at concentrations ranging from 0.3-30 nM. Following a 30 minute incubation at room temperature, the reaction was terminated by the addition of ice cold buffer and rapid filtration using a M-96 Brandel Cell Harvester (Gaithersburg, MD) through a GF/B filter presoaked for 30 minutes in 0.5% polyethyleneimine.

[4] = value in brackets, or a lone % in the cell, maximum agonist response defined by excess 8-OH-DPAT

Row | SMILES | Emax [1] [%] | Emax [2] [%] | Ki [3] [nM] | Emax [1, 4] [%]
1 | Fc1ccc2[nH]cc([C@H]3CC[C@H](N4CCN(c5cccc6c5OCCO6)CC4)CC3)c2c1 [Example 24b, 3-{(1,4-trans)-4-[4-(2,3-Dihydro-benzo[1,4]dioxin-5-yl)-piperazin-1-yl]-cyclohexyl}-5-fluoro-1H-indole] | 73 |  |  | 
2 | Fc1ccc2[nH]cc([C@H]3CC[C@@H](N4CCN(c5cccc6cccnc56)CC4)CC3)c2c1 [Example 27a, 8-{4-[(1,4-cis)-4-(5-Fluoro-1H-indol-3-yl)-cyclohexyl] -piperazin-1-yl}-quinoline] | 20 | 0 |  | 
3 | Fc1ccc2[nH]cc([C@H]3CC[C@@H](N4CCN(c5cccc6[nH]ccc56)CC4)CC3)c2c1 [Example 3a, 5-Fluoro-3-[cis-4-[4-(1H-indot-4-yl)-1-piperazinyl]cyclohexyl]-1H-indole] | 10 | 0 | 36.7 | 
4 | Cc1[nH]c2ccccc2c1[C@H]1CC[C@H](N2CCN(c3cccc4[nH]ccc34)CC2)CC1 [Example 9b, 3-[trans-4-[4-(1H-Indol-4-yl)-1-piperazinyl]cyclohexyl] -2-methyl-1H-indole] |  |  | 13 | 
5 | COc1ccc2[nH]cc([C@H]3CC[C@H](N4CCN(c5cccc6[nH]ccc56)CC4)CC3)c2c1 [Example 8b, 5-Methoxy-3-[trans-4-[4-(1H-indol-4-yl)-1-piperazinyl]cyclohexyl]-1H-indole] |  | 77 | 2.87 | 32
6 | Fc1cccc2[nH]cc([C@H]3CC[C@H](N4CCN(c5cccc6[nH]ccc56)CC4)CC3)c12 [Example 2b, 4-Fluoro-3-[trans-4-[4-(1H-indol-4-yl)-1-piperazinyl]cyclohexyl]-1H-indole] |  |  | 22.3 | 
7 | Cc1[nH]c2ccccc2c1[C@H]1CC[C@@H](N2CCN(c3cccc4[nH]ccc34)CC2)CC1 [Example 9a, 3-[cis-4-[4-(1H-Indol-4-yl)-1-piperazinyl]cyclohexyl] -2-methyl-1H-indole] |  |  | 87.1 | 
8 | N#Cc1ccc2[nH]cc([C@H]3CC[C@@H](N4CCN(c5cccc6[nH]ccc56)CC4)CC3)c2c1 [Example 7a, 3-{4-[(1,4-cis)-4-(1H-indol-4-yl)-piperazinyl-1-yl]cyclohexyl} -1H-indole-5-carbonitrile] |  | 0 |  | 
9 | COc1ccc2[nH]cc([C@H]3CC[C@@H](N4CCN(c5cccc6[nH]ccc56)CC4)CC3)c2c1 [Example 8a, 5-Methoxy-3-[cis-4-[4-(1H-indol-4-yl)-1-piperazinyl]cyclohexyl]-1H-indole] |  | 0 | 60.3 | 0
10 | c1cc(N2CCN([C@H]3CC[C@@H](c4c[nH]c5ncccc54)CC3)CC2)c2cc[nH]c2c1 [Example 10a, 3-{(1,4-cis)-4-[4-(1H-Indole-4-yl)-piperazin-1-yl]-cyclohexyl}-1H-pyrrolo[2,3-b]pyridine] |  | 0 |  | 
11 | Fc1ccc2c(c1)[nH]cc2[C@H]1CC[C@@H](N2CCN(c3cccc4c3OCCO4)CC2)CC1 [Example 25a, 3-{(1,4-cis)-4-[4-(2,3-Dihydro-benzo[1,4]dioxin-5-yl)-piperazin-1-yl]-cyclohexyl}-6-fluoro-1H-indole] | 9 |  |  | 
12 | Fc1ccc2c(c1)[nH]cc2[C@H]1CC[C@@H](N2CCN(c3cccc4[nH]ccc34)CC2)CC1 [Example 4a, 6-Fluoro-3-[cis-4-[4-(1H-indol-4-yl)-1-piperazinyl]cyclohexyl]-1H-indole] |  | 0 | 33.5 | 0
13 | Clc1ccc2[nH]cc([C@H]3CC[C@H](N4CCN(c5cccc6[nH]ccc56)CC4)CC3)c2c1 [Example 6b, 5-Chloro-3-[trans-4-[4-(1H-indol-4-yl)-1-piperazinyl]cyclohexyl]-1H-indole] |  |  | 58.3 | 
14 | c1cc(N2CCN([C@H]3CC[C@H](c4c[nH]c5ccccc54)CC3)CC2)c2cc[nH]c2c1 [Example 1b, 3-[trans-4-[4-(1H-indol-4-yl)-1-piperazinyl]cyclohexyl]-1H-indole] |  | 77 | 5.29 | 32
15 | Fc1ccc2c(c1)[nH]cc2[C@H]1CC[C@H](N2CCN(c3cccc4[nH]ccc34)CC2)CC1 [Example 4b, 6-Fluoro-3-[trans-4-[4-(1H-indol-4-yl)-1-piperazinyl]cyclohexyl]-1H-indole] |  | 7.5 | 5.45 | 
16 | Fc1ccc2[nH]cc([C@H]3CC[C@H](N4CCN(c5cccc6cccnc56)CC4)CC3)c2c1 [Example 27b, 8-{4-[(1,4-trans)-4-(5-Fluoro-1H-indol-3-yl)-cyclohexyl] -piperazin-1-yl}-quinoline] | 66 |  |  | 
17 | Fc1ccc2[nH]cc([C@H]3CC[C@@H](N4CCN(c5cccc6c5OCCO6)CC4)CC3)c2c1 [Example 24a, 3-{(1,4-cis)-4-[4-(2,3-Dihydro-benzo[1,4]dioxin-5-yl)-piperazin-1-yl]-cyclohexyl}-5-fluoro-1H-indole] | 15.4 |  |  | 
18 | Fc1ccc2[nH]cc([C@H]3CC[C@H](N4CCN(c5cccc6[nH]ccc56)CC4)CC3)c2c1 [Example 3b, 5-Fluoro-3-[trans-4-[4-(1H-indol-4-yl)-1-piperazinyl]cyclohexyl]-1H-indole] | 51 | 0 | 4.62 | 
19 | COc1cc(N2CCN([C@H]3CC[C@@H](c4c[nH]c5ccc(C#N)cc54)CC3)CC2)c2ncccc2c1 [Example 44c, 3-{(1,4-cis)-4-[4-(6-Methoxy-quinolin-8-yl)-piperazin-1-yl]-cyclohexyl}-1H-indole-5-carbonitrile] |  | 0 |  | 0
20 | N#Cc1ccc2[nH]cc([C@H]3CC[C@@H](N4CCN(c5cccc6cccnc56)CC4)CC3)c2c1 [Example 29a, 3-[(1,4-cis)-4-(4-Quinolin-8-yl-piperazin-1-yl)-cyclohexyl] -1H-indole-5-carbonitrile] | 23 |  |  | 
21 | Fc1cccc2[nH]cc([C@H]3CC[C@@H](N4CCN(c5cccc6[nH]ccc56)CC4)CC3)c12 [Example 2a, 4-Fluoro-3-[cis-4-[4-(1H-indol-4-yl)-1-piperazinyl]cyclohexyl]-1H-indole] |  |  | 117 | 
22 | Cn1cc([C@H]2CC[C@@H](N3CCN(c4cccc5cccnc45)CC3)CC2)c2cc(F)ccc21 [Example 28, 8-{4-(1,4-cis)-4-[4-(5-Fluoro-1-methyl-1H-indol-3-yl)-cyclohexyl] -piperazin-1-yl}-quinoline] | 0 | 0 |  | 
23 | c1cc(N2CCN([C@H]3CC[C@@H](c4c[nH]c5ccccc54)CC3)CC2)c2cc[nH]c2c1 [Example 1a, 3-[cis-4-[4-(1H-Indol-4-yl)-1-piperazinyl]cyclohexyl]-1H-indole] |  | 0 | 32 | 0
